According to patent US20100105694A1, “SUBSTITUTED PYRAZINONE DERIVATIVES FOR USE AS A MEDICINE” (priority 2006, published 2010):
Where two headings read alike, the source gives them in different places.

Assays:
[1] = molecular target: T1, human adrenergic-α2A receptor (Homo sapiens, UniProt P08913); assay: Radioligand binding experiment for hα2A receptor ([3H]raulwolscine, CHO cell membranes)
T1 construct: expressed in transfected cells; host or cells: CHO cells, stably transfected; membranes
T1 sequence (P08913 1-465): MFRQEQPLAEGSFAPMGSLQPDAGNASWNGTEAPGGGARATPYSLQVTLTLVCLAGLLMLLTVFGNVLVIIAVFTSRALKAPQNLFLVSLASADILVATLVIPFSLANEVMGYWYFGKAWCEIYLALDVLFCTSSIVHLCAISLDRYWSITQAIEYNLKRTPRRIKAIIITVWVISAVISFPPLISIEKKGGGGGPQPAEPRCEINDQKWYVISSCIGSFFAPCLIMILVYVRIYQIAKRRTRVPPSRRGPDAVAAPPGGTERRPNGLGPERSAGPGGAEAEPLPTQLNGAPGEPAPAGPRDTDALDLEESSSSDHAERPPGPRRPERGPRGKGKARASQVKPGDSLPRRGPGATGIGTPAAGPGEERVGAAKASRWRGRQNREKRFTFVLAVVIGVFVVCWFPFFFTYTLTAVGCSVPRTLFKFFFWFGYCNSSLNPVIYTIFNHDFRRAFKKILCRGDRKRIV
Experimental: (§1) The interaction of a compound of Formula (I) with α2C-adrenoceptor receptors was assessed in in vitro radioligand binding experiments. In general, a low concentration of a radioligand with a high binding affinity for a particular receptor or transporter is incubated with a sample of a tissue preparation enriched in a particular receptor or transporter or with a preparation of cells expressing cloned human receptors in a buffered medium. During the incubation, the radioligand binds to the receptor or transporter. When equilibrium of binding is reached, the receptor bound radioactivity is separated from the non-bound radioactivity, and the receptor- or transporter-bound activity is counted. The interaction of the test compounds with the receptor is assessed in competition binding experiments. Various concentrations of the test compound are added to the incubation mixture containing the receptor- or transporter preparation and the radioligand. The test compound in proportion to its binding affinity and its concentration inhibits binding of the radioligand. The radioligand used for hα2A and hα2C receptor binding was [^3H]-raulwolscine.
(§2) CHO cells, stabile transfected with human adrenergic-α2A and α2C receptor cDNA, were cultured in Dulbecco's Modified Eagle's Medium (DMEM)/Nutrient mixture Ham's F12 (ratio 1:1) (Gibco, Gent-Belgium) supplemented with 10% heat inactivated fetal calf serum (Life Technologies, Merelbeke-Belgium) and antibiotics (100 IU/ml penicillin G, 100 μg/ml streptomycin sulphate, 110 μg/ml pyruvic acid and 100 μg/ml L-glutamine). One day before collection, cells were induced with 5 mM sodiumbutyrate. Upon 80-90% of confluence, cells were scraped in phosphate buffered saline without Ca^2+ and Mg^2+ and collected by centrifugation at 1500×g for 10 minutes. The cells were homogenised in Tris-HCl 50 mM using an Ultraturrax homogenizer and centrifuged for 10 minutes at 23,500×g. The pellet was washed once by resuspension and rehomogenization and the final pellet was resuspended in Tris-HCl, divided in 1 ml aliquots and stored at −70° C.
(§3) Membranes were thawed and re-homogenized in incubation buffer (glycylglycine 25 mM, pH 8.0). […] Filters were rinsed extensively with ice-cold rinsing buffer (Tris-HCl 50 mM pH 7.4). Filter-bound radioactivity was determined by scintillation counting in a Topcount (Packard, Meriden, Conn.) and results were expressed as counts per minute (cpm). Non-specific binding was determined in the presence of 1 μM oxymetazoline for the hα2A receptor and 1 μM spiroxatrine for hα2C receptors.
(§4) Data from assays in the presence of compound were calculated as a percentage of total binding measured in the absence of test compound. Inhibition curves, plotting percent of total binding versus the log value of the concentration of the test compound, were automatically generated, and sigmoidal inhibition curves were fitted using non-linear regression. The pIC50 values of test compounds were derived from individual curves.

[2] = molecular target: T2, human adrenergic-α2C receptor (Homo sapiens, UniProt P18825); assay: Radioligand binding experiment for α2C-adrenoceptor ([3H]raulwolscine, CHO cell membranes)
T2 construct: expressed in transfected cells; host or cells: CHO cells, stably transfected; membranes
T2 sequence (P18825 1-462): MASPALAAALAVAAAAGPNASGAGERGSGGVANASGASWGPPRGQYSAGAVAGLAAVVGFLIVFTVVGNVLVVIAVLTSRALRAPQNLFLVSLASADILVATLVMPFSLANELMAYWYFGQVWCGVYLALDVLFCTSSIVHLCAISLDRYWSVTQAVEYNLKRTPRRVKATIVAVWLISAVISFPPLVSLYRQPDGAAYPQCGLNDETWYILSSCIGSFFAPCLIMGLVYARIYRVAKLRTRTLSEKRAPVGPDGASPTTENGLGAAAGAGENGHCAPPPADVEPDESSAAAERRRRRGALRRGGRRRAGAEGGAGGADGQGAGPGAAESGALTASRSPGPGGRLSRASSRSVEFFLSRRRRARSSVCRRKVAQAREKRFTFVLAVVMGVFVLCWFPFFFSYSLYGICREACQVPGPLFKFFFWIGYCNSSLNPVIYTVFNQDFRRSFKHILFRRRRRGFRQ
Experimental: as §1, §2, §3, §4

5HT-Transporter = molecular target: T3, 5HT-Transporter (Homo sapiens, UniProt P31645); assay: Binding experiment for the 5HT-transporter ([3H]paroxetine, human platelet membranes)
T3 construct: Human platelet membranes (Oceanix Biosciences Corporation, Hanover, Md., USA) were thawed; tissue Oceanix Biosciences Corporation; host or cells: human platelet membranes
Experimental: as §1
Human platelet membranes (Oceanix Biosciences Corporation, Hanover, Md., USA) were thawed, diluted in buffer (Tris-HCl 50 mM, 120 mM NaCl and 5 mM KCl) and quickly (max 3 s) homogenised with an Ultraturrax homogenizer. […] Incubation was stopped by rapid filtration of the incubation mixture over GF/B filters, pre-wetted with 0.1% polyethyleneamine, using a Filtermate196 harvester (Packard, Meriden, Conn.). Filters were rinsed extensively with ice-cold buffer and radioactivity on the filters was counted in a Topcount liquid scintillation counter (Packard, Meriden, Conn.). Data were expressed as cpm. Imipramine (at 1 μM final concentration) was used to determine the non-specific binding.
as §4

[3] = [3H]raulwolscine 1 nM, membranes of CHO cells transfected with human α2A receptor, read-out: h-α2A pIC50 (converted)
[4] = [3H]raulwolscine 1 nM, membranes of CHO cells transfected with human α2C receptor, read-out: h-α2C pIC50 (converted)
[5] = [3H]paroxetine 0.5 nM, read-out: h-5HTT pIC50 (converted)

T3 sequence (P31645 whole entry): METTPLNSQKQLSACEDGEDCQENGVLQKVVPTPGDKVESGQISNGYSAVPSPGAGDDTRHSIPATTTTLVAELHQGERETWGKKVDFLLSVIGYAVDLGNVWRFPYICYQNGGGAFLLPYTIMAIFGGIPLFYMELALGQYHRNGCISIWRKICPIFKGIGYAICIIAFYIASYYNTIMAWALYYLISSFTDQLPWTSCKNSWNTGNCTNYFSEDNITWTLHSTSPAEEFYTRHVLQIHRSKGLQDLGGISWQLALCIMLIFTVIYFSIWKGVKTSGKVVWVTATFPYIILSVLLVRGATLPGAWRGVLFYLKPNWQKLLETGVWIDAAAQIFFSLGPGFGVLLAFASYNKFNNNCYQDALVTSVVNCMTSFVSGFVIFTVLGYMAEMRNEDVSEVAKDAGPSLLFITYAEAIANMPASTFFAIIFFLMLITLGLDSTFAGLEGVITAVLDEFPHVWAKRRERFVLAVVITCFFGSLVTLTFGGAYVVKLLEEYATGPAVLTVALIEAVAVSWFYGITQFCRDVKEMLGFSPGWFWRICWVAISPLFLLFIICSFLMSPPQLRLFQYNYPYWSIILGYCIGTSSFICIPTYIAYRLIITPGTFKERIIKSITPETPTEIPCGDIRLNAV

IC50 [1, 3] [nM] | IC50 [2, 4] [nM] | IC50 (5HT-Transporter; [5]) [nM] | Structure (SMILES) | IC50 [1] [nM] | IC50 [2] [nM] | IC50 (5HT-Transporter; h-5HTT pIC50, [3H]paroxetine 0.5 nM) [nM]
1000 | 631 | > 10000 | NCc1ccc(Cn2ccnc(NC3CCN(Cc4ccccc4)CC3)c2=O)cc1 [Compound 5-2] |  |  | 
200 | 631 | > 10000 | CC(C)(C)OC(=O)NCc1ccc(Cn2ccnc(N3CCC(c4ccccc4)CC3)c2=O)cc1 [Compound 4-3] |  |  | 
1260 | 316 | 5010 | COC(=O)Cn1ccnc(NC2CCN(Cc3ccc(-c4ccccc4)cc3)CC2)c1=O [Compound 1-5] |  |  | 
501 | 100 | 2510 | O=c1c(NC2CCN(Cc3ccc(-c4ccccc4)cc3)CC2)nccn1CCN1CCCCC1 [Compound 1-3] |  |  | 
501 | 501 | 3980 | O=c1c(N2CCC(c3ccccc3)CC2)nccn1Cc1ccc2ccccc2c1 [Compound 4-1] |  |  | 
3160 | 631 | > 10000 | CC(C)(C)OC(=O)NCc1ccc(Cn2ccnc(NC3CCN(CC(c4ccccc4)c4ccccc4)CC3)c2=O)cc1 [Compound 9-4] |  |  | 
2000 | 631 | 316 | O=c1c(NC2CCN(Cc3ccc(-c4ccccc4)cc3)CC2)nccn1CC1CCCCO1 (stereo not drawn) [Compound 1-9] |  |  | 
794 | 631 | > 10000 | CC(C)(C)OC(=O)NCCCn1ccnc(NC2CCN(Cc3ccc(OCc4ccccc4)cc3)CC2)c1=O [Compound 11-3] |  |  | 
2510 | 631 | > 10000 | C=CCn1ccnc(N2CCN(CCc3ccccc3)CC2)c1=O [Compound 10-4] |  |  | 
1260 | 501 | 6310 | O=c1c(NC2CCN(CC(c3ccccc3)c3ccccc3)CC2)nccn1Cc1ccc(Br)cc1 [Compound 9-9] |  |  | 
1000 | 25.1 | 3160 | CN(CCc1ccccc1)C1CCN(c2nccn(CCCN3C(=O)c4ccccc4C3=O)c2=O)CC1 [Compound 8-1] |  |  | 
3980 | 794 | > 10000 | COC(=O)Cn1ccnc(NC2CCN(CCCc3ccccc3)CC2)c1=O [Compound 7-6] |  |  | 
794 | 251 | 3160 | O=C1c2ccccc2C(=O)N1CCCn1ccnc(NC2CCN(Cc3ccc(OCc4ccccc4)cc3)CC2)c1=O [Compound 11-5] |  |  | 
2510 | 631 | > 10000 | O=C(Cn1ccnc(NC2CCN(CC(c3ccccc3)c3ccccc3)CC2)c1=O)c1ccccc1 [Compound 9-10] |  |  | 
200 | 251 | 6310 | CC(C)(C)OC(=O)NCc1ccc(Cn2ccnc(N3CCN(Cc4cccc(-c5ccccc5)c4)CC3)c2=O)cc1 [Compound 3-2] |  |  | 
316 | 100 | 794 | NCc1ccc(Cn2ccnc(NC3CCN(CCCc4ccccc4)CC3)c2=O)cc1 [Compound 7-1] |  |  | 
631 | 794 | 1580 | O=c1c(NC2CCN(Cc3ccc(OCc4ccccc4)cc3)CC2)nccn1Cc1cccc(Br)c1 [Compound 11-6] |  |  | 

IC50 [1, 3] [nM] | IC50 [2, 4] [nM] | IC50 (5HT-Transporter; [5]) [nM] | Structure (SMILES) | IC50 [1] [nM] | IC50 [2] [nM] | IC50 (5HT-Transporter; h-5HTT pIC50, [3H]paroxetine 0.5 nM) [nM]
1260 | 316 | 6310 | O=c1c(NC2CCN(CCc3ccccc3)CC2)nccn1Cc1ccc(Br)cc1 [Compound 6-9] |  |  | 
631 | 794 | 501 | O=c1c(NC2CCN(Cc3ccc(-c4ccccc4)cc3)CC2)nccn1Cc1ccc2ccccc2n1 [Compound 1-11] |  |  | 
1000 | 398 | 1000 | O=c1c(NC2CCN(Cc3ccc(-c4ccccc4)cc3)CC2)nccn1Cc1cccc(Br)c1 [Compound 1-7] |  |  | 
 |  |  | O=c1c(NC2CCN(CCc3ccccc3)CC2)nccn1Cc1cccc(Br)c1 [Compound 6-8] | 1000 | 398 | 5010
3160 | 794 | > 10000 | O=c1c(NC2CCN(Cc3ccc(-c4ccccc4)cc3)CC2)nccn1Cc1ccncc1 [Compound 1-10] |  |  | 
2510 | 794 | > 10000 | O=c1c(NC2CCN(CC(c3ccccc3)c3ccccc3)CC2)nccn1CCN1CCCCC1 [Compound 9-5] |  |  | 
251 | 631 | 2000 | NCc1ccc(Cn2ccnc(NC3CCN(Cc4ccc(OCc5ccccc5)cc4)CC3)c2=O)cc1 [Compound 11-1] |  |  | 
794 | 79.4 | 3160 | CC(C)(C)OC(=O)NCCCn1ccnc(NC2CCN(CCCc3ccccc3)CC2)c1=O [Compound 7-2] |  |  | 
794 | 631 | > 10000 | NCc1ccc(Cn2ccnc(N3CCN(CCc4ccccc4)CC3)c2=O)cc1 [Compound 10-1] |  |  | 
1580 | 398 | 2000 | O=c1c(NC2CCN(CCCc3ccccc3)CC2)nccn1Cc1ccccc1Br [Compound 7-11] |  |  | 
794 | 631 | 2510 | NCc1ccc(Cn2ccnc(NC3CCN(CC(c4ccccc4)c4ccccc4)CC3)c2=O)cc1 [Compound 9-2] |  |  | 
794 | 631 | 5010 | O=c1c(N2CCN(CCc3ccccc3)CC2)nccn1Cc1ccc(-c2ccccc2)cc1 [Compound 10-8] |  |  | 
1000 | 398 | 3160 | CSCCn1ccnc(NC2CCN(CCCc3ccccc3)CC2)c1=O [Compound 7-15] |  |  | 
1260 | 631 | 5010 | O=c1c(NC2CCN(CC(c3ccccc3)c3ccccc3)CC2)nccn1Cc1cccc(Br)c1 [Compound 9-8] |  |  | 
1580 | 501 | 1000 | O=c1c(NC2CCN(CCCc3ccccc3)CC2)nccn1Cc1ccc(Br)cc1 [Compound 7-13] |  |  | 
501 | 794 | > 10000 | NCc1ccc(Cn2ccnc(N3CCC(c4ccccc4)CC3)c2=O)cc1 [Compound 4-2] |  |  | 
794 | 794 | 5010 | O=c1c(N2CCN(Cc3cccc(-c4ccccc4)c3)CC2)nccn1CC=Cc1ccccc1 [Compound 3-6] |  |  | 
